Legend:
Assay type in all cases: functional
[1] = test system: SF-295; experiment: Antiproliferative activity against human SF295 cells
[2] = Antiproliferative activity against human […] cells
[3] = test system: PC-3; experiment: Antiproliferative activity against human PC3 cells
[4] = test system: CAKI-1; experiment: Antiproliferative activity against human CAKI-1 cells
[5] = test system: HCT-116; experiment: Antiproliferative activity against human HCT116 cells
[6] = test system: UACC-62; experiment: Antiproliferative activity against human UACC62 cells
[7] = test system: HL-60; experiment: Antiproliferative activity against human HL60 cells
[8] = test system: HOP-92; experiment: Antiproliferative activity against human HOP92 cells; settings: for TGI: read-out: pTGI (converted)
[9] = test system: SF-539; experiment: Antiproliferative activity against human SF539 cells
[10] = test system: UO-31; experiment: Antiproliferative activity against human UO31 cells
[11] = test system: SR; experiment: Antiproliferative activity against human SR cells; settings: for TGI: read-out: pTGI (converted)
[12] = test system: HCT-15; experiment: Antiproliferative activity against human HCT15 cells
[13] = test system: Hs-578T; experiment: Antiproliferative activity against human HS578T cells
[14] = test system: RPMI-8226; experiment: Antiproliferative activity against human RPMI8226 cells
[15] = test system: LOX IMVI; experiment: Antiproliferative activity against human LOX IMVI cells; settings: for TGI: read-out: pTGI (converted)
[16] = test system: CCRF-CEM; experiment: Antiproliferative activity against human CCRF-CEM cells
[17] = test system: 786-0; experiment: Antiproliferative activity against human 786-0 cells
[18] = test system: SNB-75; experiment: Antiproliferative activity against human SNB75 cells
[19] = test system: SK-MEL-5; experiment: Antiproliferative activity against human SK-MEL-5 cells
[20] = test system: MOLT-4; experiment: Antiproliferative activity against human MOLT4 cells
[21] = test system: EKVX; experiment: Antiproliferative activity against human EKVX cells
[22] = test system: DU-145; experiment: Antiproliferative activity against human DU145 cells
[23] = test system: RXF 393; experiment: Antiproliferative activity against human RXF393 cells

| Compound | GI50 [1] [µM] | GI50 [2] [µM] | GI50 [3] [µM] | GI50 [4] [µM] | GI50 [5] [µM] | GI50 [6] [µM] | GI50 [7] [µM] | GI50 [8] [µM] | GI50 [9] [µM] | GI50 [10] [µM] | GI50 [12] [µM] | GI50 [13] [µM] | GI50 [14] [µM] | GI50 [15] [µM] | GI50 [16] [µM] | GI50 [17] [µM] | GI50 [18] [µM] | GI50 [19] [µM] | GI50 [20] [µM] | GI50 [21] [µM] | further results |
| --- | --- | --- | --- | --- | --- | --- | --- | --- | --- | --- | --- | --- | --- | --- | --- | --- | --- | --- | --- | --- | --- |
| COc1ccc(-n2cc(-c3cc(OC)c(OC)c(OC)c3)[nH]c2=O)cc1Cl | 39.8 | > 100 | > 100 | > 100 | > 100 | 50.1 | > 100 | 15.8 | 31.6 | > 100 | > 100 | 31.6 | > 100 | > 100 | > 100 | 25.1 | 6.31 | > 100 | > 100 | > 100 | GI50 [11]: 50.1 µM |
| COc1cc(-n2cc(-c3ccc(Cl)cc3)[nH]c2=O)cc(OC)c1OC | 31.6 | – | 15.8 | 15.8 | 31.6 | 25.1 | > 100 | – | 25.1 | 20 | > 100 | 79.4 | 12.6 | 63.1 | < 0.01 | 15.8 | 25.1 | 31.6 | > 100 | 31.6 | GI50 [22]: 63.1 µM; GI50 [11]: > 100 µM |
| COc1cc(-c2cn(-c3ccc(Cl)cc3)c(=O)[nH]2)cc(OC)c1OC | > 100 | > 100 | > 100 | > 100 | > 100 | > 100 | 0.398 | > 100 | > 100 | > 100 | > 100 | > 100 | > 100 | – | > 100 | > 100 | > 100 | > 100 | 0.0199 | > 100 | GI50 [22]: > 100 µM; GI50 [11]: 0.0316 µM; TGI [11]: 39.8 µM; GI50 [23]: > 100 µM |
| COc1ccc(-n2cc(-c3cc(OC)c(OC)c(OC)c3)[nH]c2=S)cc1Cl | 39.8 | 31.6 | 50.1 | 5.01 | 25.1 | > 100 | > 100 | 31.6 | 20 | 39.8 | > 100 | 15.8 | 5.01 | 6.31 | 0.631 | 25.1 | 20 | 25.1 | > 100 | 39.8 | GI50 [22]: 31.6 µM; GI50 [23]: 15.8 µM |
| COc1ccc(-n2cc(-c3cc(OC)c(OC)c(OC)c3)[nH]c2=S)cc1OC | > 100 | > 100 | > 100 | > 100 | > 100 | > 100 | > 100 | > 100 | > 100 | > 100 | > 100 | > 100 | > 100 | > 100 | > 100 | > 100 | 63.1 | > 100 | 6.31 | > 100 | GI50 [22]: > 100 µM; GI50 [11]: 2.51 µM; TGI [11]: 7.94 µM; GI50 [23]: > 100 µM |
| COc1ccc(-c2cn(-c3ccc(OC)c(OC)c3)c(=O)[nH]2)cc1 | > 100 | 50.1 | > 100 | > 100 | > 100 | > 100 | 39.8 | > 100 | > 100 | > 100 | > 100 | > 100 | > 100 | > 100 | > 100 | > 100 | 25.1 | 63.1 | 1.58 | > 100 | GI50 [22]: > 100 µM; GI50 [11]: 0.1 µM; TGI [11]: 0.631 µM |
| O=c1[nH]c(-c2ccc(Cl)c(Cl)c2)cn1-c1ccc(Cl)cc1 | 25.1 | 25.1 | 63.1 | 25.1 | 15.8 | 25.1 | 31.6 | 15.8 | 20 | 25.1 | > 100 | 15.8 | 63.1 | 39.8 | 39.8 | 20 | 20 | 39.8 | 20 | 31.6 | GI50 [22]: 31.6 µM; GI50 [11]: 5.01 µM; TGI [11]: 15.8 µM; GI50 [23]: 31.6 µM |
| COc1ccc(-n2cc(-c3ccc(OC)c(OC)c3)[nH]c2=S)cc1Cl | 39.8 | > 100 | > 100 | > 100 | > 100 | > 100 | > 100 | 39.8 | 39.8 | > 100 | > 100 | 39.8 | > 100 | > 100 | > 100 | 50.1 | 5.01 | > 100 | 79.4 | 39.8 | GI50 [22]: > 100 µM; GI50 [11]: > 100 µM |
| COc1ccc(-n2cc(-c3ccc(Cl)cc3)[nH]c2=S)cc1Cl | 25.1 | 20 | 31.6 | 25.1 | 50.1 | 79.4 | > 100 | 15.8 | 20 | 20 | > 100 | 25.1 | 50.1 | 100 | 63.1 | 20 | 20 | 39.8 | 39.8 | 39.8 | GI50 [22]: 39.8 µM; GI50 [23]: 25.1 µM |
| COc1ccc(-c2cn(-c3ccc(Cl)cc3)c(=S)[nH]2)cc1OC | 6.31 | 6.31 | 63.1 | 3.16 | 3.98 | – | 3.16 | 0.316 | 31.6 | 39.8 | 5.01 | 20 | 3.98 | 1.58 | > 100 | 6.31 | 15.8 | 3.16 | > 100 | 12.6 | GI50 [22]: 12.6 µM; TGI [8]: 7.94 µM; GI50 [11]: 3.16 µM; LC50 [15]: 6.31 µM; TGI [15]: 3.16 µM; GI50 [23]: 3.16 µM |
| COc1cc(-n2cc(-c3ccccc3)[nH]c2=O)cc(OC)c1OC | 39.8 | 31.6 | 39.8 | 39.8 | 63.1 | 39.8 | 63.1 | 20 | 20 | 39.8 | 79.4 | 31.6 | > 100 | > 100 | – | 25.1 | 12.6 | 39.8 | > 100 | 25.1 | GI50 [22]: 1.58 µM; GI50 [11]: > 100 µM |
| COc1ccc(/C=C\c2cc(OC)c(OC)c(OC)c2)cc1O [COMBRETASTATIN A4] | 0.0631 | 50.1 | 0.0316 | 0.0398 | 0.0316 | 0.01 | – | 0.2 | 0.0398 | 0.2 | 0.0316 | 0.158 | 0.158 | 0.01 | 0.1 | 0.0199 | 0.794 | 0.01 | 0.1 | 0.398 | GI50 [22]: 0.01 µM; TGI [8]: 39.8 µM; GI50 [11]: 0.126 µM; TGI [11]: 79.4 µM; TGI [15]: 12.6 µM; GI50 [23]: 0.794 µM |
